According to article PMC4620497 (Scientific Reports, 2015):

What was measured:
[1] = target: T1, CHEK1 (Homo sapiens, UniProt O14757); design: method as in earlier work; conditions: Table S1; cited from earlier work
T1 construct: purchased DiscoveRx KINOMEscan (Ambit Biosciences)
T1 sequence (O14757 1-476): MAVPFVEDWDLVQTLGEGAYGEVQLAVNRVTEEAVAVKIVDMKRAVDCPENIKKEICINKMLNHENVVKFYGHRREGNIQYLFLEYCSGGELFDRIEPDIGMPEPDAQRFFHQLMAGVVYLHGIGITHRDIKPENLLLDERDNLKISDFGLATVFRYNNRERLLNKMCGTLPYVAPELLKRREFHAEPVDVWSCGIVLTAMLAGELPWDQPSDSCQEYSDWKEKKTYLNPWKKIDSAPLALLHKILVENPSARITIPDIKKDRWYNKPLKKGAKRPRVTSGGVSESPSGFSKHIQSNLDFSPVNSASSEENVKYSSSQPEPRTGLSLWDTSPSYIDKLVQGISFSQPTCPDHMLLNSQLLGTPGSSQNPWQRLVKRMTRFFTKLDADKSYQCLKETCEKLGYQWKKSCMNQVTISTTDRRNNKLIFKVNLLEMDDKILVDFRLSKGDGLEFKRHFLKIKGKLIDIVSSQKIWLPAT

[2] = target: T2, RAF1 (Homo sapiens, UniProt P04049); assay: KINOMEscan panel screen; type: binding; conditions: read-out: Percent Control(%)
T2 construct: purchased DiscoveRx KINOMEscan (Ambit Biosciences)
T2 sequence (P04049 whole entry): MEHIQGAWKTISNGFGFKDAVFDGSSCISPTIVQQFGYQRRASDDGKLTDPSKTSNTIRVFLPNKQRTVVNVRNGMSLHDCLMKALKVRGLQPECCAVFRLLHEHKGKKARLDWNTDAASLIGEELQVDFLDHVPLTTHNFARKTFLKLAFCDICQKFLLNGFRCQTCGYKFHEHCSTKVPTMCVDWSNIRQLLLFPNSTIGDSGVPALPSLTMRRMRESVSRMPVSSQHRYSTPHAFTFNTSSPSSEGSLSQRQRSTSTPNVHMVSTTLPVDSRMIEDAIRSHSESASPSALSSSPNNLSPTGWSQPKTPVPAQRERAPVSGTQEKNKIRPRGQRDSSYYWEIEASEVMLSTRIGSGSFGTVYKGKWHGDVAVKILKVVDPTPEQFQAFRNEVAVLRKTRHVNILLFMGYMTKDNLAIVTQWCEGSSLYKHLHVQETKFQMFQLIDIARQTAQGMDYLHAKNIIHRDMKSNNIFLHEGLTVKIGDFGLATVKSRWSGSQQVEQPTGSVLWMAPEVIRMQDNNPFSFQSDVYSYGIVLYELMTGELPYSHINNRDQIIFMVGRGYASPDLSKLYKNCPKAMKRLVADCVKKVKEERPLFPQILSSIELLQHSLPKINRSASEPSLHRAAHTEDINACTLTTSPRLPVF

[3] = target: T3, LZK (Homo sapiens, UniProt O43283); assay: KINOMEscan panel screen; type: binding; conditions: read-out: Percent Control(%)
T3 construct: purchased DiscoveRx KINOMEscan (Ambit Biosciences)

[4] = target: T4, RIPK1 (Homo sapiens, UniProt Q13546); assay: KINOMEscan panel screen; type: binding; conditions: read-out: Percent Control(%)
T4 construct: purchased DiscoveRx KINOMEscan (Ambit Biosciences)

[5] = target: T5, TESK1 (Homo sapiens, UniProt Q15569); assay: KINOMEscan panel screen; type: binding; conditions: read-out: Percent Control(%)
T5 construct: purchased DiscoveRx KINOMEscan (Ambit Biosciences)

[6] = test system: WM2664; assay: MTT cell viability assay; conditions: Homo sapiens, WM 266-4, 72 h
[7] = target: T6, ULK3 (Homo sapiens, UniProt Q6PHR2); assay: KINOMEscan panel screen; type: binding; conditions: read-out: Percent Control(%)
T6 construct: purchased DiscoveRx KINOMEscan (Ambit Biosciences)

[8] = target: T1, CHEK1; assay: KINOMEscan panel screen; type: binding; conditions: read-out: Percent Control(%)
[9] = target: T7, TRKA (Homo sapiens, UniProt P04629); assay: KINOMEscan panel screen; type: binding; conditions: read-out: Percent Control(%)
T7 construct: purchased DiscoveRx KINOMEscan (Ambit Biosciences)

[10] = target: T8, DDR2 (Homo sapiens, UniProt Q16832); assay: KINOMEscan panel screen; type: binding; conditions: read-out: Percent Control(%)
T8 construct: purchased DiscoveRx KINOMEscan (Ambit Biosciences)

[11] = target: T9, MEK4 (Homo sapiens, UniProt P45985); assay: KINOMEscan panel screen; type: binding; conditions: read-out: Percent Control(%)
T9 construct: purchased DiscoveRx KINOMEscan (Ambit Biosciences)
T9 sequence (P45985 whole entry): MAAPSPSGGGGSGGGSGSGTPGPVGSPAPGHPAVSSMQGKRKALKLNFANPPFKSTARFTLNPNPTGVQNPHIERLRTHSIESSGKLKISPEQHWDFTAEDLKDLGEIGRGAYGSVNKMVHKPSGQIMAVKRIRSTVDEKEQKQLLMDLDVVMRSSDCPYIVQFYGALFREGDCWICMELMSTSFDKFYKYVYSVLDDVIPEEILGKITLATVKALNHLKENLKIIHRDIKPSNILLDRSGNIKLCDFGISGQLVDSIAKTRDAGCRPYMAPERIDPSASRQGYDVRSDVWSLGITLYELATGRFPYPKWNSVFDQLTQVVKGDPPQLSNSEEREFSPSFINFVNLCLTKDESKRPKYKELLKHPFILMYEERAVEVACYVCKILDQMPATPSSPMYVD

[12] = target: T10, SRMS (Homo sapiens, UniProt Q9H3Y6); assay: KINOMEscan panel screen; type: binding; conditions: read-out: Percent Control(%)
T10 construct: purchased DiscoveRx KINOMEscan (Ambit Biosciences)

[13] = target: T11, PIK3CA(E545K) (Homo sapiens, UniProt P42336, E545K); assay: KINOMEscan panel screen; type: binding; conditions: read-out: Percent Control(%)
T11 construct: purchased DiscoveRx KINOMEscan (Ambit Biosciences)

[14] = target: T12, TNK1 (Homo sapiens, UniProt Q13470); assay: KINOMEscan panel screen; type: binding; conditions: read-out: Percent Control(%)
T12 construct: purchased DiscoveRx KINOMEscan (Ambit Biosciences)

[15] = test system: total β-catenin and active β-catenin in STF3a cells; assay: Western blot of β-catenin in STF3a cells; type: cell-based; conditions: 10 μM or above, 24 h
[16] = target: T13, TNK2 (Homo sapiens, UniProt Q07912); assay: KINOMEscan panel screen; type: binding; conditions: read-out: Percent Control(%)
T13 construct: purchased DiscoveRx KINOMEscan (Ambit Biosciences)
T13 sequence (Q07912 whole entry): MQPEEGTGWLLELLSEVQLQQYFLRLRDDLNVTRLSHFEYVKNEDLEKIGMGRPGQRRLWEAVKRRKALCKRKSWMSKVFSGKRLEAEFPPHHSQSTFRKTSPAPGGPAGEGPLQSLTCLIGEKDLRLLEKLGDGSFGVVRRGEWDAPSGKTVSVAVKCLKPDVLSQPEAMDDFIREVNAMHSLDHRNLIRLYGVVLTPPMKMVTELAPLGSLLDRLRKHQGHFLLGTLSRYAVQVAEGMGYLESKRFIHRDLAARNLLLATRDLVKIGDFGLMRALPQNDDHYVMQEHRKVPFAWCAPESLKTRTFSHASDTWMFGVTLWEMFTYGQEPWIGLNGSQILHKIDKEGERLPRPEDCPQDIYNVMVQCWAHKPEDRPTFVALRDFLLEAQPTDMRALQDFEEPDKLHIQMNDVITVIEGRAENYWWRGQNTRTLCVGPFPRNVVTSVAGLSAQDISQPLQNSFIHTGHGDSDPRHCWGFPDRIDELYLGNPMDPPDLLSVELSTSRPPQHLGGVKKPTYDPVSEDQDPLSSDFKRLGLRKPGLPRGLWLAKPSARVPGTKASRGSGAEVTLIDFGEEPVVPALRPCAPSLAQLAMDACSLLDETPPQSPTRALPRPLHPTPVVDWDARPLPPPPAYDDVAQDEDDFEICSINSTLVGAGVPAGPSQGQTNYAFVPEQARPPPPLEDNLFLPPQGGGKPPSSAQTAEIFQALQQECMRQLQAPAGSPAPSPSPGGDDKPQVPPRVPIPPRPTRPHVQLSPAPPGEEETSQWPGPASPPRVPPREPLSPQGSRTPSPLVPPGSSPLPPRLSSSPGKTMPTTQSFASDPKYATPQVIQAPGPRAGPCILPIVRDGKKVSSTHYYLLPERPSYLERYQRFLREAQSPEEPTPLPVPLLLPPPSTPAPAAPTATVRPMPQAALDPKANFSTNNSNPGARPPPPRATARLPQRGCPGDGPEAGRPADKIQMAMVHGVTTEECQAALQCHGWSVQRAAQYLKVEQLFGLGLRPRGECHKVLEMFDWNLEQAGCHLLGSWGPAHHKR

[17] = target: T14, GSK3A (Homo sapiens, UniProt P49840); assay: KINOMEscan panel screen; type: binding; conditions: read-out: Percent Control(%)
T14 construct: purchased DiscoveRx KINOMEscan (Ambit Biosciences)

[18] = target: T15, EIF2AK1 (Homo sapiens, UniProt Q9BQI3); assay: KINOMEscan panel screen; type: binding; conditions: read-out: Percent Control(%)
T15 construct: purchased DiscoveRx KINOMEscan (Ambit Biosciences)

[19] = target: T16, TRKB (Homo sapiens, UniProt Q16620); assay: KINOMEscan panel screen; type: binding; conditions: read-out: Percent Control(%)
T16 construct: purchased DiscoveRx KINOMEscan (Ambit Biosciences)

[20] = target: T17, CTK (Homo sapiens, UniProt P42679); assay: KINOMEscan panel screen; type: binding; conditions: read-out: Percent Control(%)
T17 construct: purchased DiscoveRx KINOMEscan (Ambit Biosciences)

[21] = target: T18, MLCK (Homo sapiens, UniProt Q32MK0); assay: KINOMEscan panel screen; type: binding; conditions: read-out: Percent Control(%)
T18 construct: purchased DiscoveRx KINOMEscan (Ambit Biosciences)

[22] = target: T19, FES (Homo sapiens, UniProt P07332); assay: KINOMEscan panel screen; type: binding; conditions: read-out: Percent Control(%)
T19 construct: purchased DiscoveRx KINOMEscan (Ambit Biosciences)

[23] = target: T20, PIK3CA (Homo sapiens, UniProt P42336); assay: KINOMEscan panel screen; type: binding; conditions: read-out: Percent Control(%)
T20 construct: purchased DiscoveRx KINOMEscan (Ambit Biosciences)

[24] = target: T21, ADCK3 (Homo sapiens, UniProt Q8NI60); assay: KINOMEscan panel screen; type: binding; conditions: read-out: Percent Control(%)
T21 construct: purchased DiscoveRx KINOMEscan (Ambit Biosciences)
T21 sequence (Q8NI60 163-647): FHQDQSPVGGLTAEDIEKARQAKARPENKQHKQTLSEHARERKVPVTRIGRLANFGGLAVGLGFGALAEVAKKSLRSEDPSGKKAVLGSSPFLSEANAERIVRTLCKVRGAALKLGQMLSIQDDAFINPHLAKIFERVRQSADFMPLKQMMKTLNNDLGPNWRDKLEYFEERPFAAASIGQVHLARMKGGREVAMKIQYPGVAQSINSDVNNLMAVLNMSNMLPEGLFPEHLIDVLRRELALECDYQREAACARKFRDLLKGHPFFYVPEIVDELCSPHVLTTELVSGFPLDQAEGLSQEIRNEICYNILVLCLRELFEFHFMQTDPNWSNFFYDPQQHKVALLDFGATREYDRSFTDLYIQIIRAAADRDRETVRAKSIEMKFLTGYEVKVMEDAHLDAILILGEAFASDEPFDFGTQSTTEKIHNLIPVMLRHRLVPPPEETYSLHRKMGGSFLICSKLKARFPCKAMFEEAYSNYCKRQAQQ

[25] = target: T22, PIK3CD (Homo sapiens, UniProt O00329); assay: KINOMEscan panel screen; type: binding; conditions: read-out: Percent Control(%)
T22 construct: purchased DiscoveRx KINOMEscan (Ambit Biosciences)

[26] = target: T23, p38-delta (Homo sapiens, UniProt O15264); assay: KINOMEscan panel screen; type: binding; conditions: read-out: Percent Control(%)
T23 construct: purchased DiscoveRx KINOMEscan (Ambit Biosciences)
T23 sequence (O15264 whole entry): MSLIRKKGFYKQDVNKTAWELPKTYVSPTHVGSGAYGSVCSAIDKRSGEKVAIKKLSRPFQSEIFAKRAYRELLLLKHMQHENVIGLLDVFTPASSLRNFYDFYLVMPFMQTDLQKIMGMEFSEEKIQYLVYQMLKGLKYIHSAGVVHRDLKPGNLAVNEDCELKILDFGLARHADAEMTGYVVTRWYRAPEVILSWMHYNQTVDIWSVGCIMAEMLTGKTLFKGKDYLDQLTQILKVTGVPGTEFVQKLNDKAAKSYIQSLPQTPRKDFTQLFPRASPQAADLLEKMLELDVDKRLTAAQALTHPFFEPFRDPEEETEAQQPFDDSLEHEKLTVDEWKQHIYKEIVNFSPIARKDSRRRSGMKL

[27] = target: T24, OSR1 (Homo sapiens, UniProt O95747); assay: KINOMEscan panel screen; type: binding; conditions: read-out: Percent Control(%)
T24 construct: purchased DiscoveRx KINOMEscan (Ambit Biosciences)

[28] = target: T25, MAP4K4 (Homo sapiens, UniProt O95819); assay: KINOMEscan panel screen; type: binding; conditions: read-out: Percent Control(%)
T25 construct: purchased DiscoveRx KINOMEscan (Ambit Biosciences)

[29] = test system: MYC, CCND1, NKD1 transcripts in STF3a cells; assay: Real-time qPCR of β-catenin target genes in STF3a cells; type: cell-based; conditions: 24 h
[30] = target: T26, NEK6 (Homo sapiens, UniProt Q9HC98); assay: KINOMEscan panel screen; type: binding; conditions: read-out: Percent Control(%)
T26 construct: purchased DiscoveRx KINOMEscan (Ambit Biosciences)
T26 sequence (Q9HC98 whole entry): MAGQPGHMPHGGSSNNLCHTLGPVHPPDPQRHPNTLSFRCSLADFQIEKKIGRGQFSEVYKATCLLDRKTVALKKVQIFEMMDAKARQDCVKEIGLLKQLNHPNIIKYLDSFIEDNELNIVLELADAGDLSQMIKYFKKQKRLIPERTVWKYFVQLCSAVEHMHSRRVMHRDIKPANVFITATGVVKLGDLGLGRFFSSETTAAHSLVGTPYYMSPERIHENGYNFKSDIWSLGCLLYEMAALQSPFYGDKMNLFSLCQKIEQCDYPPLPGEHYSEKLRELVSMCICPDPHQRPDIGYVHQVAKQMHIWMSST

[31] = target: T27, ABL1(T315I)-nonphosphorylated (Homo sapiens, UniProt P00519, T315I); assay: KINOMEscan panel screen; type: binding; conditions: read-out: Percent Control(%)
T27 construct: purchased DiscoveRx KINOMEscan (Ambit Biosciences)

[32] = target: T28, PRKR (Homo sapiens, UniProt P19525); assay: KINOMEscan panel screen; type: binding; conditions: read-out: Percent Control(%)
T28 construct: purchased DiscoveRx KINOMEscan (Ambit Biosciences)

[33] = target: T29, EGFR (Homo sapiens, UniProt P00533); assay: KINOMEscan panel screen; type: binding; conditions: read-out: Percent Control(%)
T29 construct: purchased DiscoveRx KINOMEscan (Ambit Biosciences)
T29 sequence (P00533 25-1210): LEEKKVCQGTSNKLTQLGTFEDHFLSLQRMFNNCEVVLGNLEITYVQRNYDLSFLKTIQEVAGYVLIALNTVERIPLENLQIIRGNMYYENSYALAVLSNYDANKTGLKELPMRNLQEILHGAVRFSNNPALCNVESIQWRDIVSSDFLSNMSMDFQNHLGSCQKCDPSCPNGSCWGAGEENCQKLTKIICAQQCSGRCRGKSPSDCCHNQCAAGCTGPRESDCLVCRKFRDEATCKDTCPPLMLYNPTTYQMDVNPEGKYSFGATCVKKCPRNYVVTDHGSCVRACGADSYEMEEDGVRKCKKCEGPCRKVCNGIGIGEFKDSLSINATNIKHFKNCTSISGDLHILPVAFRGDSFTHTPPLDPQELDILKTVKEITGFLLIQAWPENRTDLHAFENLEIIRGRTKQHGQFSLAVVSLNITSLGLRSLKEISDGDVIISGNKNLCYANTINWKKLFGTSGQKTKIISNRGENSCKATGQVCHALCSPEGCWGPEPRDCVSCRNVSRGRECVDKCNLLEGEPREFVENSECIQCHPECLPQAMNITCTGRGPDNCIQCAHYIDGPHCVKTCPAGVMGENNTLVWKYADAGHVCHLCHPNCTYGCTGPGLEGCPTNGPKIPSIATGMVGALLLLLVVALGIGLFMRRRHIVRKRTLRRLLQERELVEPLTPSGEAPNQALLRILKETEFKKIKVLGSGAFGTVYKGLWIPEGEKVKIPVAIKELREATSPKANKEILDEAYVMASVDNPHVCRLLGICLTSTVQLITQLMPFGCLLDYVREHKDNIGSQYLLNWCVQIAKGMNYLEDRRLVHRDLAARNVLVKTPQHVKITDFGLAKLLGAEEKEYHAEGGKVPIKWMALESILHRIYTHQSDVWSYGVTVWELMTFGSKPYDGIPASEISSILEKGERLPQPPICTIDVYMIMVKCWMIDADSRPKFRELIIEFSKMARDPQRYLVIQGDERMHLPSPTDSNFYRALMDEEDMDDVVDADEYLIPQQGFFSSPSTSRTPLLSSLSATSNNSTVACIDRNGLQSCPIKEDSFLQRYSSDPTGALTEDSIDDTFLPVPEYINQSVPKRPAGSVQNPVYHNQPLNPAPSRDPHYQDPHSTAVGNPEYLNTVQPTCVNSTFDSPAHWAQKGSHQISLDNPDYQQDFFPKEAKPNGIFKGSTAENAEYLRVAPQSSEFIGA

[34] = target: T30, CDK11 (Homo sapiens, UniProt Q9BWU1); assay: KINOMEscan panel screen; type: binding; conditions: read-out: Percent Control(%)
T30 construct: purchased DiscoveRx KINOMEscan (Ambit Biosciences)
T30 sequence (Q9BWU1 whole entry): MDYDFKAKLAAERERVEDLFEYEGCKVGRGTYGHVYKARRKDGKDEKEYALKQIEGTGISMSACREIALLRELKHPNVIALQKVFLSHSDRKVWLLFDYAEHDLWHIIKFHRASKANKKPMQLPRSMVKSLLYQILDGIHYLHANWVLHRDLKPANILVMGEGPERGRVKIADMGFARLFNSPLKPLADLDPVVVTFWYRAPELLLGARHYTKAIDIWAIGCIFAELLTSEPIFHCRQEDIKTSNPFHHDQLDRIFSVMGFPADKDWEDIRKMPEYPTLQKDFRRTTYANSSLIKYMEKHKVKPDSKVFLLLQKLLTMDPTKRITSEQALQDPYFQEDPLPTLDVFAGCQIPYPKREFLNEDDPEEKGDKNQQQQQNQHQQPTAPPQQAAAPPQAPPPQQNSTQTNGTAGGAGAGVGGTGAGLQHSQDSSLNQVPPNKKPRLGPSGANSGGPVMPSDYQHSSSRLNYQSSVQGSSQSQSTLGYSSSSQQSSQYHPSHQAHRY

[35] = target: T31, RIOK1 (Homo sapiens, UniProt Q9BRS2); assay: KINOMEscan panel screen; type: binding; conditions: read-out: Percent Control(%)
T31 construct: purchased DiscoveRx KINOMEscan (Ambit Biosciences)

O=C(Nc1ccc(Oc2ncnc3[nH]ncc23)cc1)Nc1ccc(Cl)c(C(F)(F)F)c1 [Compound 1, 1-(4-(1H-pyrazolo[3,4-d]pyrimidin-4-yloxy)phenyl)-3-(4-chloro-3-(trifluoromethyl)phenyl)urea]
IC50 [1]: > 10 µM

CC(C)(C)c1cc(NC(=O)Nc2ccc(Oc3ncnc4[nH]ncc34)c(F)c2)no1 [SKLB-677, 1-(4-(1H-pyrazolo[3,4-d]pyrimidin-4-yloxy)-3-fluorophenyl)-3-(5-tert-butylisoxazol-3-yl)urea]
remaining binding at 10 µM [2]: 3.5% | remaining binding at 10 µM [3]: 93% | remaining binding at 10 µM [4]: 31% | remaining binding at 10 µM [5]: 82% | IC50 [6]: > 10 µM | remaining binding at 10 µM [7]: 51% | remaining binding at 10 µM [8]: 100% | remaining binding at 10 µM [9]: 7.8% | remaining binding at 10 µM [10]: 61% | remaining binding at 10 µM [11]: 39% | remaining binding at 10 µM [12]: 57% | remaining binding at 10 µM [13]: 100% | remaining binding at 10 µM [14]: 2.2% | protein levels of the total β-catenin and active β-catenin [15]: slightly decreased | remaining binding at 10 µM [16]: 37% | remaining binding at 10 µM [17]: 30% | remaining binding at 10 µM [18]: 96% | remaining binding at 10 µM [19]: 0.05% | remaining binding at 10 µM [20]: 37% | remaining binding at 10 µM [21]: 58% | remaining binding at 10 µM [22]: 7.2% | remaining binding at 10 µM [23]: 100% | remaining binding at 10 µM [24]: 100% | remaining binding at 10 µM [25]: 98% | remaining binding at 10 µM [26]: 10% | remaining binding at 10 µM [27]: 36% | remaining binding at 10 µM [28]: 0% | MYC, CCND1, and NKD1 transcripts [29]: reduced | remaining binding at 10 µM [30]: 99% | remaining binding at 10 µM [31]: 3% | remaining binding at 10 µM [32]: 57% | remaining binding at 10 µM [33]: 29% | remaining binding at 10 µM [34]: 0.1% | remaining binding at 10 µM [35]: 89%
